Measured values: patent publication EP0485091A1, “Process for the production of analogues of immunomycin” (MERCK & CO. INC., priority 1990, dated 1992)
pIC50: −log10 of the molar value.

Test system: T lymphocytes
Experiment: T-cell proliferation assay (tritiated thymidine uptake, ionomycin + PMA stimulation; also called IL-2 assay)
Format: cell-based, C57B1/6 mice
Method: Cells were pelleted by centrifugation at 1500 rpm for 8 minutes. Contaminating red cells were removed by treating the pellet with ammonium chloride lysing buffer (GIBCO) for 2 minutes at 4°C. Cold medium was added and cells were again centrifuged at 1500 rpm for 8 minutes. T lymphocytes were then isolated by separation of the cell suspension on nylon wool columns as follows: Nylon wool columns were prepared by packing approximately 4 grams of washed and dried nylon wool into 20 ml plastic syringes. The columns were sterilized by autoclaving at 250°F for 30 minutes. Nylon wool columns were wetted with warm (37°C) culture medium and rinsed with the same medium. Washed spleen cells resuspended in warm medium were slowly applied to the nylon wool. The columns were then incubated in an upright position at 37°C for 1 hour. Non-adherent […] were eluted from the columns with warm culture medium and the cell suspensions were spun as above.
The cell suspension was immediately distributed into 96 well flat-bottom microculture plates (Costar) at 200 µl/well. […] The proliferation of T lymphocytes was assessed by measurement of tritiated thymidine incorporation. After 44 hours of culturing, the cells were pulse-labelled with 2 µCi/well of tritiated thymidine (NEN, Cambridge, MA). After another 4 hours of incubation, cultures were harvested on glass fiber filters using a multiple sample harvester. Radioactivity of filter discs corresponding to individual wells as measured by standard liquid scintillation counting methods (Betacounter). Mean counts per minute of replicate wells were calculated and the results expressed as percent inhibition of tritiated thymidine uptake (profileration) as follows [drawing 11]
• 1. Mouse T cell cultures were pulsed with ³H-thymidine for 4 hours prior to harvesting at 48 hours. • 2.

SMILES	inhibition at 0.01 µg/mL (Mus musculus, T-lymphocyte, 48 h, read-out: percent inhibition of tritiated thymidine uptake (proliferation))	Inhibition of T-cell proliferation after addition of recombinant human IL-2 (50 units/ml of recombinant human IL-2 added at the initiation of culture)	IC50 (T-lymphocyte, Mouse T cell cultures, pulsed with 3H-thymidine for 4 hours prior to harvesting at 48 hours)	pIC50 (T-lymphocyte, Mouse T cell cultures, pulsed with 3H-thymidine for 4 hours prior to harvesting at 48 hours, same value in molar unit)
C=CC[C@@H]1/C=C(\C)C[C@H](C)C[C@H](OC)[C@H]2O[C@@](O)(C(=O)C(=O)N3CCCC[C@H]3C(=O)O[C@H](/C(C)=C/[C@@H]3CC[C@@H](O)[C@H](OC)C3)[C@H](C)[C@@H](O)CC1=O)[C@H](C)C[C@@H]2OC [L-679,934, reference compound]	99%			
CCC[C@@H]1/C=C(\C)C[C@H](C)C[C@H](OC)[C@H]2O[C@@](O)(C(=O)C(=O)N3CCCC[C@H]3C(=O)O[C@H](/C(C)=C/[C@@H]3CC[C@@H](O)[C@H](OC)C3)[C@H](C)[C@@H](O)CC1=O)[C@H](C)C[C@@H]2OC [fraction 510]		reversed	0.82 ng/mL	8.99
